Read-outs that look alike come from different tables or passages of the source.
How the values were obtained:
[1] = molecular target: T1, PKR in ex vivo red blood cells from healthy individuals (Homo sapiens, UniProt P30613); assay: ex vivo pyruvate kinase (PKR) activity experiment, red blood cells of healthy individuals; type: cell-based; details: 3 hours co-cultivation
T1 construct: endogenous in cells; host or cells: human red blood cells isolated from fresh peripheral blood of healthy individuals
Procedure, shortened: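 Washed, Percoll-purified human RBCs at 1 × 10^7 cells/mL were exposed to compound (final 1–3000 nM, 1% DMSO) for 3 h at 37°C, then lysed. PKR activity in lysate was followed kinetically by fluorescence at 540/590 nm over 1 h. Slope versus 1% DMSO control gave % activation; AC50 from variable-slope fit.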

[2] = molecular target: T2, PKR in ex vivo red blood cells of patients with thalassemia (Homo sapiens, UniProt P30613); assay: ex vivo pyruvate kinase (PKR) activity experiment, red blood cells of patients with thalassemia; type: cell-based
T2 construct: endogenous in cells; host or cells: human red blood cells of thalassemia patients (Patients A-D)
Method: To test the effects of the compound of the present disclosure on PKR activation in ex vivo red blood cells from healthy individuals and patients with thalassemia.
• i. 5 g of glucose, 85 mg of adenine, and 2.625 g of mannitol were weighed and added into a 50 mL centrifuge tube. 40 mL of PBS was added to dissolve (sonicate for 30 minutes until completely dissolved). The solution was filtered through a 0.22 µm filter, then added to 460 mL of sterile PBS and mixed thoroughly.
• i. Fresh human peripheral blood was collected. K2EDTA was used as the anticoagulant. 1 part anticoagulant with 9 parts blood was mixed, then centrifuged at 500 g for 10 minutes at room temperature to remove the plasma. • ii. Packed red blood cells: 1.5 volumes of PBS were added, then centrifuged at 2000 ×g for 5 minutes at room temperature. After centrifugation, the supernatant was removed. This step was repeated twice. • iii. Diluted red blood cells: 1.5 volumes of PBS were added, then resuspended and mixed thoroughly. • iv. The diluted red blood cells were slowly added to 0.5 volume of 70% isotonic solution (e.g., 7.5 mL of diluted red blood cells + 3 mL of 70% isotonic solution Percoll) and centrifuged at 4000 ×g for 20 minutes at 4°C. • v. The supernatant was removed. The red blood cells at the bottom were washed once with 4-5 mL of PBS to elute the Percoll gel, and then centrifuged at 2000 ×g for 5 minutes at room temperature. • vi. The supernatant was removed. The red blood cells were counted and then diluted in AGAM medium containing 10% FBS to a density of 2 × 10^8 cells/mL for storage at 4°C.
i. The red blood cells were seeded into a 96-well plate at a uniform density of 1 × 10^7 cells/mL, with 100 µL per well. The test compounds (dissolved in DMSO) were diluted and added to the cell culture medium, resulting in final compound concentrations of 3000, 1000, 300, 100, 10, 3, and 1 nM (with 1% DMSO). The cells and compounds were co-cultivated for 3 hours in a 37°C incubator with 5% CO2. Subsequently, the plate was centrifuged at 2000 g for 20 minutes, and the supernatant was discarded. 100 µL of red blood cell lysis buffer was added to the cell pellet, vortexed for 20 minutes, and centrifuged at 4000 g for 5 minutes. The supernatant was collected for analysis. ii. The reaction system was prepared according to the kit instructions (shown as the table below), 10 µL of the reaction system was added to each well of a 384-well plate, and 10 µL of red blood cell lysis buffer was took and mixed well (20 µL reaction system).
iii. A black, transparent-bottomed 384-well plate was placed in a microplate reader to measure fluorescence at 540/590 nm. The fluorescence was read every 2 minutes for 1 hour.
i. The Slope value was calculated over the assay time. Compound activation percentage was calculated using the 1% DMSO well as the control well. Activation percentage = (Slope of compound well / Slope of control well) × 100% ii. Dose-response curve was fit using the logarithmic compound concentration on the X-axis and the percent activation percentage on the Y-axis, the log(agonist) vs. response - variable slope function in GraphPad Prism 5 was used to determine the AC50 value for each compound on PKR activity. Y = min + (max−min)/(1+10^(∧)((LogAC50−X)×Hillslope)). [formula] The PKR agonist effects of the compound of the present disclosure on ex vivo red blood cells from healthy individuals and thalassemia patients were determined using the above assay. The AC50 values measured on ex vivo red blood cells from healthy individuals are as follows (A represents 0-100 nM, B represents 101-300 nM, and C represents 300-1000 nM): […]

[3] = thalassemia Patient A, read-out: AC50 (nM) Patient A
[4] = thalassemia Patient B, read-out: AC50 (nM) Patient B
[5] = thalassemia Patient C, read-out: AC50 (nM) Patient C
[6] = thalassemia Patient D, read-out: AC50 (nM) Patient D

T2 sequence (P30613 whole entry): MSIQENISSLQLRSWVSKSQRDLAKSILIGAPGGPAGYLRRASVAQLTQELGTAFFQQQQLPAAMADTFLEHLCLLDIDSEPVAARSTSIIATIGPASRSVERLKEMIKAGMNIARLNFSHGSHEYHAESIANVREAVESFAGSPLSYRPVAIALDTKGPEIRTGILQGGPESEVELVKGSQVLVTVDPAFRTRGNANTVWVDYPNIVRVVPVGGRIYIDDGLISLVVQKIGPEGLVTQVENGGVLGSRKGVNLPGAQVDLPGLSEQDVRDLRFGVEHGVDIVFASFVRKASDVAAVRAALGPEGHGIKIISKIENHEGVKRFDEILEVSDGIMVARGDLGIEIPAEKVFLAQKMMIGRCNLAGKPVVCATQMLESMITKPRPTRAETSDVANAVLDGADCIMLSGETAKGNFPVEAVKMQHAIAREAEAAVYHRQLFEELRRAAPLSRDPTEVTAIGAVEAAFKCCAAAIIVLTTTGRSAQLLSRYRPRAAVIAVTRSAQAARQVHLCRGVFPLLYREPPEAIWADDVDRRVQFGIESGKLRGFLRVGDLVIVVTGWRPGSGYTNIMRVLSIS
T1 sequence (P30613 whole entry): as above

| AC50 [1] [µM] | AC50 [2, 3] [nM] | AC50 [2, 4] [nM] | AC50 [2, 5] [nM] | AC50 [2, 6] [nM] | SMILES |
| --- | --- | --- | --- | --- | --- |
| < 0.1 | 251 | 84.4 | 140 | 145 | N#Cc1ccc(S(=O)(=O)N2CC(=C3CN(C(=O)[C@H](CO)c4ccccc4)C3)C2)cc1 [Compound 65, (S)-4-(1'-(3-hydroxy-2-phenylpropionyl)-1',4'-dihydro-2H,2'H-[3,3'-diazetidinylidene]-1(4H)-ylsulfonyl)benzonitrile] |
|  | 21.8 | 20.9 | 24.8 | 11.7 | O=C([C@H](CO)c1ccc(F)cc1F)N1CC(=C2CN(S(=O)(=O)c3ccccn3)C2)C1 [Compound 83, (S)-2-(2,4-difluorophenyl)-3-hydroxy-1-(1'-(pyridin-2-ylsulfonyl)-1',4'-dihydro-2H,2'H-[3,3'-diazetidinylidene]-1(4H)-yl)propan-1-one] |

— EP4721737A1, “USE OF PHARMACEUTICAL COMPOSITION COMPRISING COMPOUND HAVING BIS(AZANYLYLIDENE) SULFONYL STRUCTURE FOR TREATING ANEMIA-RELATED DISEASES” (Scinnohub Pharmaceutical Co., Ltd., priority 2023, dated 2024)
